Molecular target: T1, recombinant human 5-HT6 receptor (Homo sapiens, UniProt P50406)
T1 construct: expressed in transfected cells; membranes
Assay: Radioligand binding, [3H]LSD competition in HEK293 cell membranes
Details: competition for [3H]LSD binding, membranes of HEK293 cells expressing recombinant human 5-HT6 receptor; read-out: pKi for 5-HT6 (converted)
Experimental: The binding activity of compounds of this invention in vitro was determined as follows. Duplicate determinations of 5-HT6 ligand affinity were made by competing for binding of [^3H]LSD in cell membranes derived from HEK293 cells stably expressing recombinant human 5-HT6 receptor. Duplicate determinations of 5-HT2A ligand affinity were made by competing for binding of [^3H]Ketanserin (3-(2-(4-(4-fluorobenzoyl)piperidinol)ethyl)-2,4(1H,3H)-quinazolinedione) in cell membranes derived from CHO-K1 cells stably expressing recombinant human 5-HT2A receptor. Membranes were prepared from HEK 293 cell lines by the method described by Monsma et al., Molecular Pharmacology, Vol. 43 pp. 320-327 (1993), and from CHO-K1 cell lines as described by Bonhaus et al., Br J Pharmacol. June; 115 (4):622-8 (1995).
For estimation of affinity at the 5-HT2A receptor all determinations were made in assay buffer containing 50 mM Tris-HCl, 5 mM ascorbic acid, 4 mM CaCl2, pH 7.4 at 32° C., in a 250 microliter reaction volume.
Assay tubes containing [^3H] […] LSD or [^3H]Ketanserin were determined as radioactive counts per minute using Packard TopCount.
Displacement of [^3H]LSD or [^3H]Ketanserin from the binding sites was quantified by fitting concentration-binding data to a 4-parameter logistic equation: […]

T1 sequence (P50406 whole entry): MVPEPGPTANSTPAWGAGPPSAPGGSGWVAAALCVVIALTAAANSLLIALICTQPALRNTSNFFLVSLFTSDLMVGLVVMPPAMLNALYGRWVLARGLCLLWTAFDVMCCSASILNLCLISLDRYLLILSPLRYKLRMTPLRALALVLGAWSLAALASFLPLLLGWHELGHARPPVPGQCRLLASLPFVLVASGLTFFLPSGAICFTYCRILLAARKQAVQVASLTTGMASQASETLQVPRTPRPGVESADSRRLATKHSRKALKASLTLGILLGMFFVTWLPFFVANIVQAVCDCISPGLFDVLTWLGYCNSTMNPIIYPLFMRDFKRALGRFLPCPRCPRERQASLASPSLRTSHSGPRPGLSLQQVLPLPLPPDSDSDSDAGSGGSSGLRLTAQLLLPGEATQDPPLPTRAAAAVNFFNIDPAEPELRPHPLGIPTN

NC[C@@H]1CCCc2cc(S(=O)(=O)c3cccc(F)c3)cc(F)c21 (stereo in doubt) [C-[8-Fluoro-6-(3-fluoro-benzenesulfonyl)-1,2,3,4-tetrahydro-naphthalen-1-yl]-methylamine] gave a Ki of ~0.1 nM.

— patent US7981923B2, “Tetralin and indane derivatives and uses thereof” (Roche Palo Alto LLC, priority 2006, dated 2011)
